Measurements: patent publication US10414759B2, “Phenylthiazoles and uses thereof” (Purdue Research Foundation, priority 2017, dated 2019)
Values after ≈ are worked out from the molar mass of the structure shown. Like-named read-outs stand apart in the source and are kept apart here.

Columns and labels:
[1] = system: VRSA10; experiment: MIC/MBC clinical isolate panel (Table 3); assay type: cell-based, S. aureus; settings: Staphylococcus aureus, Table 3, VRSA10
Protocol: MRSA clinical isolates, and vancomycin-resistant Staphylococcus aureus (VRSA) strain were obtained through the Network of Antimicrobial Resistance in Staphylococcus aureus (NARSA) program. In addition, vancomycin-resistant Enterococcus faecium (VRE) strain was obtained from the ATCC. Bacteria were cultured in cation-adjusted Mueller Hinton broth in a 96-well plate. Compounds, using triplicate samples, were added to the plate and serially diluted. […] Plates were visually inspected and the MIC was categorized as the concentration at which no visible growth of bacteria was observed. The average of triplicate MIC determinations is reported.
The minimum inhibitory concentration (MIC) of tested compounds and control antibiotics were determined using the broth microdilution method in accordance with the recommendations contained in the Clinical and Laboratory Standards Institute guidelines, against methicillin-sensitive (ATCC 6538 and NRS107), methicillin-resistant (MRSA), and vancomycin-resistant (VRSA) Staphylococcus aureus, Staphylococcus epidermidis, Enterococcus faecalis, E. faecium, Listeria monocytogenes, and Streptococcus pneumoniae clinical isolates. A bacterial solution equivalent to 0.5 McFarland standard was prepared and diluted in cation-adjusted Mueller-Hinton broth (CAMHB) to achieve a bacterial concentration of about 5×10^5 CFU/mL and seeded in 96-well plates. Enterococcus faecium was diluted in brain heart infusion broth. Enterococcus faecalis, Streptococcus pneumonia and Listeria monocytogenes were diluted in tryptone soya broth (TSB). Compounds and control drugs were added in the first row of 96-well plates and serially diluted (to achieve a concentration gradient ranging from 128 to 1 μg/mL). Plates were then incubated aerobically at 37° C. for at least 18 hours. The minimum bactericidal concentration (MBC) of the active compounds was tested by plating 5 μL from wells with no growth onto Tryptic soy agar (TSA) plates.

[2] = Metabolic stability in human liver microsomes; assay type: in vitro ADME; settings: pH 7.4, human liver microsomes
Protocol: The tested compounds were incubated in duplicate with human liver microsomes at 37° C. The reaction contained microsomal protein in 100 mM potassium phosphate, 2 mM NADPH, 3 mM MgCl2, pH 7.4. A control was run for each test agent omitting NADPH to detect NADPH-free degradation. At 0, 10, 20, 40, and 60 minutes, an aliquot was removed from each experimental and control reaction and mixed with an equal volume of ice-cold Stop Solution (methanol containing haloperidol, diclofenac, or other internal standard). Stopped reactions are incubated at least ten minutes at −20° C., and an additional volume of water was added. The samples were centrifuged to remove precipitated protein, and the supernatants were analyzed by LC/MS/MS to quantitate the remaining parent. Data are converted to % remaining by dividing by the time zero concentration value. Data are fit to a first-order decay model to determine half-life. Intrinsic clearance is calculated from the half-life and the protein concentrations: CLint=ln(2)/(T1/2 [microsomal protein]).

[3] = system: Caco-2 cells; experiment: Caco-2 bidirectional permeability assay
[4] = system: MRSA (2658 RCMB); experiment: MIC against MRSA (2658 RCMB), broth dilution; assay type: cell-based, Staphylococcus aureus
Summary of the method: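 Broth dilution in cation-adjusted Mueller-Hinton broth with an inoculum of about 5×10^5 CFU/mL (from a 0.5 McFarland suspension), using triplicate serial dilutions. MIC was the lowest concentration with no visible growth by visual inspection, reported as the mean of triplicates.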

[5] = system: MRSA (USA300); experiment: Time-kill assay; assay type: cell-based, Staphylococcus aureus; settings: MRSA US300, 3.0×MIC
Protocol: Aliquots (100 μL) were taken from each sample after 2, 4, 6, 8, 10, 12, and 24 hours, serially diluted in phosphate-buffered saline, and transferred to Trypticase soy agar (TSA) (Becton, Dickinson and Company, Sparks, Md., USA) plates. Plates were incubated at 37° C. for at least 16 hours before counting viable CFU/mL to determine the time required to reduce the bacterial cell count by 3-log10.

[6] = system: NRS383 (MRSA USA200); experiment: MIC/MBC clinical isolate panel (Table 3); assay type: cell-based, S. aureus; settings: Staphylococcus aureus, Table 3, NRS383 (MRSA USA200)
Protocol: (§1) Bacteria were cultured in cation-adjusted Mueller Hinton broth in a 96-well plate. Compounds, using triplicate samples, were added to the plate and serially diluted. […] Plates were visually inspected and the MIC was categorized as the concentration at which no visible growth of bacteria was observed. The average of triplicate MIC determinations is reported.
(§2) A bacterial solution equivalent to 0.5 McFarland standard was prepared and diluted in cation-adjusted Mueller-Hinton broth (CAMHB) to achieve a bacterial concentration of about 5×10^5 CFU/mL and seeded in 96-well plates. Enterococcus faecium was diluted in brain heart infusion broth. Enterococcus faecalis, Streptococcus pneumonia and Listeria monocytogenes were diluted in tryptone soya broth (TSB).

[7] = system: NRS72 (MSSA); experiment: MIC/MBC clinical isolate panel (Table 3); assay type: cell-based, S. aureus; settings: Staphylococcus aureus, Table 3, NRS72 (MSSA)
Protocol: as §1, §2

[8] = system: NRS384 (MRSA USA300); experiment: MIC/MBC clinical isolate panel (Table 3); assay type: cell-based, S. aureus; settings: Staphylococcus aureus, Table 3, NRS384 (MRSA USA300)
Protocol: as §1, §2

[9] = system: NRS119 (MRSA); experiment: MIC/MBC clinical isolate panel (Table 3); assay type: cell-based, S. aureus; settings: Staphylococcus aureus, Table 3, NRS119 (MRSA)
Protocol: as §1, §2

[10] = system: NRS123 (MRSA USA400); experiment: MIC/MBC clinical isolate panel (Table 3); assay type: cell-based, S. aureus; settings: Staphylococcus aureus, Table 3, NRS123 (MRSA USA400)
Protocol: as §1, §2

[11] = system: NRS382 (MRSA USA100); experiment: MIC/MBC clinical isolate panel (Table 3); assay type: cell-based, S. aureus; settings: Staphylococcus aureus, Table 3, NRS382 (MRSA USA100)
Protocol: as §1, §2

Compound: CCCCc1ccc(-c2nc(C)c(-c3ccnc(NN)n3)s2)cc1 [Compound 17, 2-(4-Butylphenyl)-5-(2-hydrazinopyrimidin-4-yl)-4-methylthiazole]
- MBC ([1]; read-out: MBC): 2 µg/mL (≈ 5.89 µM)
- MIC ([1]; read-out: MIC): 1 µg/mL (≈ 2.95 µM)
- microsomal CLint ([2]; NADPH omitted, read-out: NADPH-free Clint): 0.5 µL/min/mg
- half-life ([2]; NADPH omitted, read-out: NADPH-free t1/2): > 1 h
- microsomal CLint ([2]; with NADPH, read-out: NADPH-dependent CLint): 3 to 7.5 µL/min/mg
- half-life ([2]; with NADPH, read-out: NADPH-dependent t1/2): 5.13 h
- Mean A→B Papp ([3]; Caco-2, apical to basolateral): 1.6 ×10⁻⁶ cm/s
- Mean B→A Papp ([3]; Caco-2, basolateral to apical): 2.8 ×10⁻⁶ cm/s
- Efflux ratio ([3]; Papp (B→A)/Papp (A→B)): 1.8
- improvement in MIC value compared with lead compound 1 ([4]; MRSA (2658 RCMB)): 12 fold
- MIC ([4]; Staphylococcus aureus, Table 1, MRSA (2658 RCMB), read-out: MIC ± SD): 0.4 µg/mL (≈ 1.18 µM)
- antibacterial (anti-MRSA) activity, in words ([4]; Table 1): more potent than vancomycin
- MIC ± SD ([4]; Table 1, MRSA (2658 RCMB)): 0.40 ± 0.0 µg/mL (≈ 1.18 µM)
- time required to reduce the MRSA inoculum to zero colony forming units [5]: ≤ 2 h
- MBC [6]: 2 µg/mL (≈ 5.89 µM)
- MIC ([6]; read-out: MIC): 2 µg/mL (≈ 5.89 µM)
- MBC [7]: 8 µg/mL (≈ 23.6 µM)
- MIC ([7]; read-out: MIC): 2 µg/mL (≈ 5.89 µM)
- MBC [8]: 2 µg/mL (≈ 5.89 µM)
- MIC ([8]; read-out: MIC): 2 µg/mL (≈ 5.89 µM)
- MBC [9]: 2 µg/mL (≈ 5.89 µM)
- MIC ([9]; read-out: MIC): 2 µg/mL (≈ 5.89 µM)
- MBC [10]: 2 µg/mL (≈ 5.89 µM)
- MIC ([10]; read-out: MIC): 2 µg/mL (≈ 5.89 µM)
- MBC [11]: 4 µg/mL (≈ 11.8 µM)
- MIC ([11]; read-out: MIC): 2 µg/mL (≈ 5.89 µM)
